Experimental data from patent publication US11020449B2, “Use of the GK-1 peptide as an antitumoral and/or antimetastatic agent” (UNIVERSIDAD NACIONAL AUTÓNOMA DE MÉXICO, priority 2016, dated 2021).
Read-outs that look alike come from different tables or passages of the source.

Legend:
[1] = test system: 4T1 mammary carcinoma murine model
Description: Lungs, liver, spleen, brain, and primary tumor were dissected from mice in the groups G1 and G2 of the Example of Embodiment 3, to determine the soluble factors present in the tumor microenvironment and in metastatic-associated organs; in order to obtained a protein extract, 5 mg of each tissue were weighed and placed in 300 μL of lysis buffer with protease inhibitors, then were homogenized. Finally, homogenates were centrifuged for 20 min at 13 000 rpm at 4° C., collecting the supernatants (protein extract). Additionally, serum was isolated from blood samples obtained from all mice. Serum and protein extract samples were processed through the Magpix Luminex system (xPonent software) to determine the concentration of cytokines, chemokines, and growth factors.
Data in Tables 2, 3, and 4 correspond to spleen, lung, and brain soluble factor concentrations expressed in pg/mg of protein. A random sample of 6 mice was taken from 5 independent experiments. * P<0.05.

influenza vaccine = details: cited from earlier work
B16-F10 cells [2] = details: for Number of tumors developed (Tumors): 10 μg GK-1 i.v. weekly, 32 days, mean±standard deviation
Description: To evaluate the antimetastatic effect of GK-1 in melanoma, 2×10^4 cells of the B16-F10 line were intravenously injected to C57BL/6 mice (n=40; 20 females and 20 males). At day 16 post-implantation, mice were separated into two groups: The G1 group (10 males and 10 females) was intravenously administered with 10 μg of GK-1 dissolved in 100 μL of ISS; the G2 group (10 males, 10 females) was intravenously administered with 100 μL of ISS. Treatments were repeated weekly for 32 days after cell implantation.

4T1 cells [3] = details: day 39, five experiments
From the text: It is known that the metastasis sites in the 4T1 cell-induced breast cancer murine model are lungs, brain, liver, and bone [Aslakson C. J. et al., Cancer Res. 1992, 52(6): 1399-405; Mi Z. et al., J Biol Che. 2004; 279(45): 46659-67]. Therefore, to assess the antimetastatic effect of GK-1, lungs, liver, and brain from mice in G1 and G2 groups in the Example of Embodiment 3 were recovered and fixed with a 10% formaldehyde solution to macroscopically identify any metastatic focus on these organs.

[4] = test system: dendritic cells (DCs) loaded with the MAGE antigen; details: immunotherapy against murine melanoma; cited from earlier work
4T1 cells [5] = details: superficial zone, day 39
Description: A histological analysis was performed on primary tumors at day 39 post-implantation, to determine the percentage of zones with tissue death in mice from the Example of Embodiment 3. All tumors were manually sectioned and fixed in a 10% formaldehyde solution overnight at 4° C. Then, samples were included in paraffin and processed to obtain 4-μm slices; slices were stained with hematoxylin and eosin (H&E). The upper, middle, and deep tumor sections were analyzed through an Olympus B×50 microscope equipped with a digital camera and using the Infinity Analyze software (v6.3.0).

4T1 cells [6] = experiment: Survival rate in mice with 4T1 breast cancer; type: in vivo, BALB/cAnN mice; details: log-rank test
Description: As used in the following Examples of Embodiment, GK-1 was synthesized under good manufacturing practices by USV, LTD, with a purity higher than 95%. The peptide was intravenously administered to mice at a dose of 0.5 mg/kg.
Four to six weeks-old female and male BALB/cAnN mice were used, with a weight range of 17-23 g for females and 20-27 g for males. All mice were maintained in pathogen-free conditions, as required by the Mexican Official Regulation NOM-062-ZOO-1999.
J. et al., Cancer Res, 1992. […] 279(45):46659-67]. […] The administration was repeated weekly at different times.
To determine the survival rate in mice with breast cancer, 1×10^3 4T1 cells were implanted to 40 BALB/cAnN mice as described in the Example of Embodiment 1; 10 males and 10 females were included in each group (G1 and G2). The administration schedule described in the Example of Embodiment 1 was repeated weekly after a solid tumor development, and for 62 days after cell implant.

melanoma = details: mouse melanoma model; cited from earlier work
B16-F10 cells [7] = experiment: B16-F10 melanoma model: survival rate and lung tumor foci (four groups); type: in vivo, C57BL/6 mice; details: for survival rate: i.v. weekly, 32 days after implantation
Description: The B16 melanoma model is a lung metastasis model widely used for therapy evaluation. While the term “lung metastasis” is used to characterize this type of model, technically each lung nodule is a primary tumor.
Once the tumor is established (16 days after B16-F10 cells were implanted), mice were separated into four groups: One group was administered with a 0.10 μg/μL GK-1 solution in DMSO (0.05%); another group was administered with 0.10 μg/μL GK-1 solution in ISS; a third group received 100 μL of DMSO (0.05%); and a fourth group was administered with 100 μL of ISS; treatments were applied intravenously in all cases. Treatments were repeated weekly after a palpable tumor appeared and for 32 days after cell implantation.
In order to establish the antitumor effect of GK-1, lungs were dissected from mice in all experimental groups at the day 32 post-implantation, and were fixed in a 10% formaldehyde solution to macroscopically determine the number of tumor foci developed.

[8] = test system: T cell, macrophage, and dendritic cells; details: in vitro; cited from earlier work
4T1 cells [9] = test system: 4T1 cells
Description: The 4T1 cell line (American Type Culture Collection, Manassas, Va.) was used to induce a neoplasia emulating breast cancer; according to the natural history of the disease, metastasis to lung should be observed [Aslakson C. J. et al., Cancer Res, 1992. 52(6): 1399-405; Mi Z et al., J Biol Chem, 2004. 279(45):46659-67]. The 4T1 cell line was cultured in RPMI medium (Gibco, Grand Island, N.Y.) supplemented with 10% of heat-inactivated fetal bovine serum, 10 U/mL of penicillin, and 100 μg/mL of streptomycin, at 37° C. under 95% relative humidity and 5% CO2. Cultured cells were recovered by trypsinization (0.25% trypsin-0.53 mM EDTA) and washed three times with cold serum-free RPMI medium before subcutaneous implanting. About 1×10^3 4T1 cells were subcutaneously injected in the right mammary gland in BALB/cAnN mice. Tumor induction was determined by the appearance of 1 mm×1 mm solid tumors (palpable tumor), between 18 and 20 days after cell implantation. Once the established tumors reached that size, mice were distributed into two groups: Group 1 (G1) was intravenously administered with a solution of 10 μg of GK-1 in 100 μL of ISS (corresponding to 0.5 mg/kg); Group 2 (G2) was administered with ISS (100 μL) by the same route. The administration was repeated weekly at different times.
All animals were weighed before treatment, and tumor growth was continuously recorded. Tumor volume was calculated according to the following formula [Carlsson G. et al., J Cancer Res Clin Oncol, 1983. 105(1): 20-23]: Volume (mm^3)=πLW^2/6, where L is the largest side and W is the smallest side.
At the day 39 after cell implanting, animals were euthanized in accordance with the guidelines in the United Kingdom Coordinating Committee on Cancer Research (UKCCCR). The primary tumor, spleen, lungs, liver, and brain were dissected. In total, five separate experiments were performed.
As mentioned in the Example of Embodiment 1, once palpable tumors were developed in mice (G1: females X=6, males X=4; G2: females X=6, males X=4 per experiment), tumor volume was determined every third day for 39 days, with electronic Vernier.

[10] = test system: TCD4+ and TCD8+ lymphocyte populations; details: cited from earlier work

G-Y-Y-Y-P-S-D-P-N-T-F-Y-A-P-P-Y-S-A (GYYYPSDPNTFYAPPYSA; tapeworm) [GK-1]
CCL2 concentration ([1]; Brain): 3.44E+00 pg/mg of protein | CCL3 concentration ([1]; Brain): 1.40E+01 pg/mg of protein | CXCL9 concentration ([1]; Brain): 1.44E+02 pg/mg of protein | GM-CSF concentration ([1]; Brain): 2.53E+01 pg/mg of protein | IL-1α concentration ([1]; Brain): 1.44E+01 pg/mg of protein | IL-2 concentration ([1]; Brain): 6.02E+01 pg/mg of protein | IL-4 concentration ([1]; Brain): 1.36E+02 pg/mg of protein | IL-5 concentration ([1]; Brain): 1.18E+02 pg/mg of protein | IL-12 concentration ([1]; Brain): 5.29E+00 pg/mg of protein | IL-17 concentration ([1]; Brain): 8.06E+01 pg/mg of protein | TNF-α concentration ([1]; Brain): 1.26E+01 pg/mg of protein | bFGF concentration ([1]; Brain): 1.16E+04 pg/mg of protein | CCL2 concentration ([1]; Lung): 4.71E+01 pg/mg of protein | CCL3 concentration ([1]; Lung): 5.36E+01 pg/mg of protein | CXCL9 concentration ([1]; Lung): 3.88E+03 pg/mg of protein | GM-CSF concentration ([1]; Lung): 4.06E+01 pg/mg of protein | IL-1α concentration ([1]; Lung): 1.50E+02 pg/mg of protein | IL-2 concentration ([1]; Lung): 6.28E+01 pg/mg of protein | IL-4 concentration ([1]; Lung): 1.49E+02 pg/mg of protein | IL-5 concentration ([1]; Lung): 2.06E+02 pg/mg of protein | IL-12 concentration ([1]; Lung): 3.83E+00 pg/mg of protein | IL-17 concentration ([1]; Lung): 6.22E+00 pg/mg of protein | TNF-α concentration ([1]; Lung): 3.21E+01 pg/mg of protein | bFGF concentration ([1]; Lung): 3.61E+03 pg/mg of protein | CCL2 concentration ([1]; Spleen): 1.19E+01 ± 4.41E+00 pg/mg of protein | CCL3 concentration ([1]; Spleen): 4.99E+01 ± 1.51E+01 pg/mg of protein | CXCL9 concentration ([1]; Spleen): 2.31E+04 ± 1.36E+04 pg/mg of protein | GM-CSF concentration ([1]; Spleen): 3.79E+01 ± 1.60E+01 pg/mg of protein | IL-1α concentration ([1]; Spleen): 6.28E+02 ± 2.42E+02 pg/mg of protein | IL-2 concentration ([1]; Spleen): 6.65E+01 ± 1.05E+01 pg/mg of protein | IL-4 concentration ([1]; Spleen): 7.03E+01 ± 9.56E+01 pg/mg of protein | IL-5 concentration ([1]; Spleen): 1.65E+02 ± 1.00E+02 pg/mg of protein | IL-12 concentration ([1]; Spleen): 8.06E+01 ± 3.61E+01 pg/mg of protein | IL-17 concentration ([1]; Spleen): 2.98E+00 ± 3.01E+00 pg/mg of protein | TNF-α concentration ([1]; Spleen): 1.00E+02 ± 2.46E+01 pg/mg of protein | bFGF concentration ([1]; Spleen): 2.30E+04 ± 3.54E+03 pg/mg of protein | cytokine profile in serum or liver samples versus G2 ([1]; serum, liver): no differences were found | infiltrate of mononuclear cells to the lung parenchyma (influenza vaccine; a few days after subcutaneous administration): promotes the infiltrate of mononuclear cells | titer of specific IgG antibodies (influenza vaccine; young and senile mice, influenza vaccine adjuvant): increasing the titer of specific IgG antibodies | Distant (tumors at sites other than the lungs: liver, brain, intestine) (B16-F10 cells [2]; Females): 1/10 | Lung (mice with lung tumors) (B16-F10 cells [2]; Females): 8/10 | Number of tumors developed (Tumors) (B16-F10 cells [2]; Females): 62.9 ± 48.1 | Distant (tumors at sites other than the lungs: liver, brain, intestine) (B16-F10 cells [2]; Males): 0/10 | Lung (mice with lung tumors) (B16-F10 cells [2]; Males): 8/10 | Number of tumors developed (Tumors) (B16-F10 cells [2]; Males): 77.0 ± 37.6 | antimetastatic effect in melanoma (B16-F10 cells [2]; lung tumor foci G1 versus G2): ineffective to stop metastasis in melanoma | proportion of mice with lung metastatic foci within the 0-20 range (4T1 cells [3]): 67% | activation of MAGE-loaded DCs [4]: increase in the activation of these DCs | area of necrotic-apoptotic cells in primary tumor (4T1 cells [5]): increase in the area of necrotic-apoptotic cells | survival with respect to saline-treated mice (Kaplan-Meyer) (4T1 cells [6]): significantly increased survival | mean survival (melanoma): increased the mean survival | primary tumor necrosis (melanoma): increased primary tumor necrosis | tumor growth rate (melanoma): delayed tumor growth rate | survival rate (B16-F10 cells [7]; GK-1 dissolved in DMSO (0.05%)): 25% | survival rate (B16-F10 cells [7]; GK-1 dissolved in ISS): 57.14% | number of tumor foci developed in lungs versus other treatments (B16-F10 cells [7]; day 32, GK-1 in DMSO or ISS versus vehicles): no statistically significant differences | immune cell activation (CD80/86, MHC-II expression; IFN-γ, TNF-α, CCL2 secretion) [8]: promoting T cell, macrophage, and dendritic cells activation | Tumor weight (4T1 cells [9]; Exp 1, day 39): 0.825 ± 0.391 g | Tumor weight (4T1 cells [9]; Exp 2, day 39): 0.991 ± 0.507 g | Tumor weight (4T1 cells [9]; Exp 3, day 39): 1.150 ± 0.939 g | Tumor weight (4T1 cells [9]; Exp 4, day 39): 1.477 ± 0.889 g | Tumor weight (4T1 cells [9]; Exp 5, day 39): 0.587 ± 0.339 g | Tumor weight (4T1 cells [9]; Total of five experiments, day 39): 1.044 ± 0.697 g | reduction in tumor weight with respect to untreated mice (4T1 cells [9]; day 39): 27.8% | Tumor weight (4T1 cells [9]; day 39, text, five experiments): 1.04 ± 0.70 g | tumor volume versus untreated mice (4T1 cells [9]; every third day for 39 days): lower tumor volume than untreated mice, the difference was not statistically significant | proliferation of TCD4+ and TCD8+ lymphocyte populations [10]: increase the proliferation
